Where two headings read alike, the source gives them in different places.

Assay [1] has as its target T1, RORγt (Homo sapiens, UniProt P51449).
T1 sequence (P51449 1-497 isoform P51449-2): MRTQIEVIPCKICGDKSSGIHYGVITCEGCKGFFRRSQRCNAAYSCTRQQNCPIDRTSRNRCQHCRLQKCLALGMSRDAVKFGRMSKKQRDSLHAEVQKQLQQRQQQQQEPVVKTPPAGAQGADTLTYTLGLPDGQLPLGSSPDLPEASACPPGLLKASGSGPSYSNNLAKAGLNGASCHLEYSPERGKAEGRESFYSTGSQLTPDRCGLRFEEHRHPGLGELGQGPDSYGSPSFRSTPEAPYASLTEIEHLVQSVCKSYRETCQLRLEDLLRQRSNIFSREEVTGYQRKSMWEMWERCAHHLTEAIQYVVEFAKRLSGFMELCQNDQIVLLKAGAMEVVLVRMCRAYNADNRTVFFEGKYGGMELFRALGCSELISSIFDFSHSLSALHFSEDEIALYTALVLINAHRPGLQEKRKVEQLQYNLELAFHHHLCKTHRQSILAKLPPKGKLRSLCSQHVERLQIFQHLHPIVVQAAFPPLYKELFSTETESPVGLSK
Kind of assay: RORγt binding test using fluorescent-labeled cholesterol (TR-FRET). The settings on record: read-out: Binding inhibitory rate of fluorescent-labeled cholesterol to RORγt at test compound 1 μM (%). On the procedure:
RORγt Binding Test Using Fluorescent-labeled Cholesterol
The binding activity of the test compound to RORγt was measured by a time resolved fluorescence resonance energy transfer method (TR-FRET) utilizing histidine-tagged RORγt, fluorescent-labeled cholesterol (BODIPY-cholesterol, AVIVA), and terbium-labeled anti-histidine tag antibody (Invitrogen). First, a test compound diluted with an assay buffer (20 mM Tris-HCl (pH 7.5), 100 mM NaCl, 1 mM DTT, 0.1% BSA) was added to a 384 well plate by 3 μL. Then, RORγt diluted with an assay buffer to 240 nM was added by 3 μL, after which fluorescent-labeled cholesterol diluted with the assay buffer to 12 μM was added by 3 μL, and the mixture was stood at room temperature for 20 min. Thereafter, a terbium-labeled anti-histidine tag antibody diluted with the assay buffer to 8 nM was added by 3 μL. The mixture was stood at room temperature for 20 min, and fluorescence intensity (excitation wavelength 320 nm, fluorescence wavelength 520 nm, delay time 100 microseconds) was measured by Envision (PerkinElmer).

In assay [2] the target is T1, RORγt. Kind of assay: Cofactor recruitment test (Alpha Screen, biotinylated SRC-1 peptide). It is filed as biochemical. The conditions noted are these: read-out: Signal value inhibitory rate at test compound 1 μM (%). On the procedure: Cofactor Recruitment Test
Cofactor recruitment test was performed by Alpha Screen (Histidine Detection Kit, PerkinElmer) method. First, a test compound was diluted with an assay buffer (50 mM Tris-HCl (pH 7.5), 50 mM KCl, 1 mM DTT, 0.1% BSA) and added to a 384 well plate by 5 μL. […] The mixture was stood in a dark place for 1 hr, and the signal value was measured by Envision (PerkinElmer).

In assay [3] the target is T1, RORγt. Description: Jurkat reporter test (human IL-17 ROR response element luciferase, RORγt vector). It is filed as cell-based. The conditions noted are these: read-out: Luminescence level inhibitory rate at test compound 3 μM (%). On the procedure: The Jurkat cells used for the reporter test were cultured in a culture medium (RPMI (Invitrogen), 10% FCS (AusGeneX), 100 U/mL penicillin, 100 μg/mL streptomycin). On the day of the test, 4×10^7 cells were recovered by a centrifugal operation (1000 rpm, 5 min.) and suspended in PBS (phosphate buffered saline) (Invitrogen). Thereafter, the cells were recovered again by a centrifugal operation, and suspended in 2 mL of R buffer (NEON transfection kit, Invitrogen). […] Gene transfer was performed by Electroporation apparatus (NEON, Invitrogen) under the conditions of pulse voltage 1350 V, interval 10 milliseconds, number of times 3. The cells after gene transfer were suspended in 40 mL of a reaction medium (RPMI, 10% Lipid reduced FCS (HyClone), 10 mM HEPES (pH 7.5), 100 U/mL penicillin, 100 μg/mL streptomycin, 5 μM lovastatin), and plated in a 96 well plate by 90 μL. A test compound diluted with the reaction medium was added by 10 μL, and the cells were cultured overnight in an incubator. Bright-Glo (Promega) was added by 100 μL, and the mixture was stirred at room temperature for 10 min, and the luminescence level was measured by Envision (PerkinElmer).

Where [4] appears, read: test compound 3 μM, Jurkat cells.

Take `COc1ccc2c(c1)CCN(C(=O)c1ccc(=O)[nH]c1)[C@H]2C(=O)Nc1ccc([Si](C)(C)C)c(F)c1` [Example 8, (1R)-N-(3-fluoro-4-(trimethylsilyl)phenyl)-6-methoxy-2-((6-oxo-1,6-dihydropyridin-3-yl)carbonyl)-1,2,3,4-tetrahydroisoquinoline-1-carboxamide]: the inhibition at 1 µM on RORγt [1] is 102%; on RORγt [2], 81.2%. Moreover, the inhibition at 3 µM at RORγt [3] (Jurkat) came to 101%.
Regarding `COc1ccc2c(c1)CCN(C(=O)Cc1cc(O)no1)[C@H]2C(=O)Nc1cc(F)c([Si](C)(C)C)c(F)c1` [Example 85, (1R)-N-(3,5-difluoro-4-(trimethylsilyl)phenyl)-2-((3-hydroxy-1,2-oxazol-5-yl)acetyl)-6-methoxy-1,2,3,4-tetrahydroisoquinoline-1-carboxamide], the inhibition at 1 µM was determined as 103% on RORγt [1] and 99% on RORγt [2]. For the same compound, the inhibition at 3 µM at RORγt [3] (Jurkat) came to 101%.
For the compound `CCOc1ccc2c(c1)CCN(C(=O)Cc1cc(O)no1)C2C(=O)Nc1ccc(C(C)(C)C)c(F)c1` (stereo not drawn) [Example 54, N-(4-tert-butyl-3-fluorophenyl)-6-ethoxy-2-((3-hydroxy-1,2-oxazol-5-yl)acetyl)-1,2,3,4-tetrahydroisoquinoline-1-carboxamide], the inhibition at 1 µM at RORγt [1] amounted to 100%; at RORγt [2] it was 81.9%. Also, on RORγt [3] (setting [4]), the inhibition at 3 µM is 101%.
For `COc1ccc2c(c1)CCN(C(=O)CCO)[C@H]2C(=O)Nc1ccc(C(C)(C)C)c(F)c1` [Example 30, (1R)-N-(4-tert-butyl-3-fluorophenyl)-2-(3-hydroxypropanoyl)-6-methoxy-1,2,3,4-tetrahydroisoquinoline-1-carboxamide], the inhibition at 1 µM at RORγt [1] came to 102%; on RORγt [2] it was 82%. For the same compound, the inhibition at 3 µM at RORγt [3] (setting [4]) stood at 99.8%.
The matching figures for `COc1ccc2c(c1)CCN(C(=O)c1cc(O)no1)C2C(=O)Nc1ccc(C(C)(C)C)c(F)c1` (stereo not drawn) [Example 9, N-(4-tert-butyl-3-fluorophenyl)-2-((3-hydroxy-1,2-oxazol-5-yl)carbonyl)-6-methoxy-1,2,3,4-tetrahydroisoquinoline-1-carboxamide]: 100%, 77.3% and 101%.
In the same order, the values of `COc1ccc2c(c1)CCN(C(=O)CC#N)[C@H]2C(=O)Nc1cc(F)c(C(C)(C)C)c(F)c1` [Example 84, (1R)-N-(4-tert-butyl-3,5-difluorophenyl)-2-(cyanoacetyl)-6-methoxy-1,2,3,4-tetrahydroisoquinoline-1-carboxamide] are 101%, 92% and 100%.
In the same order, the values of `CCOC(=O)C(C)(C)c1ccc(NC(=O)C2c3ccc(OC)cc3CCN2C(=O)c2cc(O)no2)cc1F` (stereo not drawn) [Example 37, ethyl 2-(2-fluoro-4-(((2-((3-hydroxy-1,2-oxazol-5-yl)carbonyl)-6-methoxy-1,2,3,4-tetrahydroisoquinolin-1-yl)carbonyl)amino)phenyl)-2-methylpropanoate] are 103%, 98.3% and 98.6%.
Regarding `COc1ccc2c(c1)CCN(C(=O)c1cc(O)no1)C2C(=O)Nc1ccc(C(C)(C)C)c(Cl)c1` (stereo not drawn) [Example 10, N-(4-tert-butyl-3-chlorophenyl)-2-((3-hydroxy-1,2-oxazol-5-yl)carbonyl)-6-methoxy-1,2,3,4-tetrahydroisoquinoline-1-carboxamide], the inhibition at 1 µM on RORγt [1] was 98.9%; on RORγt [2], 43.8%. In addition, the inhibition at 3 µM at RORγt [3] (setting [4]) is 98.8%.
For the compound `COc1ccc2c(n1)CCN(C(=O)c1cc(O)no1)[C@H]2C(=O)Nc1ccc(C(C)(C)C)c(F)c1` [Example 77, (5R)-N-(4-tert-butyl-3-fluorophenyl)-6-((3-hydroxy-1,2-oxazol-5-yl)carbonyl)-2-methoxy-5,6,7,8-tetrahydro-1,6-naphthyridine-5-carboxamide], the inhibition at 1 µM on RORγt [1] was found to be 101%; at RORγt [2], 91%. Moreover, on RORγt [3] (setting [4]), the inhibition at 3 µM amounted to 100%.
Turning to `COc1ccc2c(c1)CCN(C(=O)CCCC(=O)O)[C@H]2C(=O)Nc1cc(F)c(C(C)(C)COCC2CC2)c(F)c1` [Example 161, 5-((1R)-1-((4-(1-(cyclopropylmethoxy)-2-methylpropan-2-yl)-3,5-difluorophenyl)carbamoyl)-6-methoxy-3,4-dihydroisoquinolin-2 (1H)-yl)-5-oxopentanoic acid], the inhibition at 1 µM at RORγt [1] was determined as 100%; on RORγt [2], 76%. Also, the inhibition at 3 µM at RORγt [3] (setting [4]) was found to be 90%.
For the compound `CCOc1ccc2c(n1)CCN(C(=O)Cc1cc(O)no1)[C@H]2C(=O)Nc1cc(F)c([Si](C)(C)C)c(F)c1` [Example 128, (5R)-N-(3,5-difluoro-4-(trimethylsilyl)phenyl)-2-ethoxy-6-((3-hydroxy-1,2-oxazol-5-yl)acetyl)-5,6,7,8-tetrahydro-1,6-naphthyridine-5-carboxamide], the inhibition at 1 µM on RORγt [1] came out at 103%; at RORγt [2], 100%. The inhibition at 3 µM at RORγt [3] (Jurkat) stood at 103%.
For `COc1ccc2c(c1)CCN(C(=O)c1cc(O)no1)C2C(=O)Nc1cc(F)c(C(C)(C)C)c(F)c1` (stereo not drawn) [Example 12, N-(4-tert-butyl-3,5-difluorophenyl)-2-((3-hydroxy-1,2-oxazol-5-yl)carbonyl)-6-methoxy-1,2,3,4-tetrahydroisoquinoline-1-carboxamide], the inhibition at 1 µM came to 103% at RORγt [1] and 82.4% on RORγt [2]. The inhibition at 3 µM at RORγt [3] (setting [4]) was determined as 99.3%.
Regarding `CC[Si](C)(C)c1c(F)cc(NC(=O)[C@H]2c3ccc(COC)nc3CCN2C(=O)c2cc(O)no2)cc1F` [Example 174, (5R)-N-(4-(ethyl (dimethyl)silyl)-3,5-difluorophenyl)-6-((3-hydroxy-1,2-oxazol-5-yl)carbonyl)-2-(methoxymethyl)-5,6,7,8-tetrahydro-1,6-naphthyridine-5-carboxamide], the figures for the inhibition at 1 µM at RORγt [1] and at RORγt [2] were 101% and 88%, respectively. Besides, on RORγt [3] (Jurkat), the inhibition at 3 µM came to 98%.
The matching figures for `COc1ccc2c(c1)CCN(C(=O)c1ccc(=O)[nH]c1)C2C(=O)Nc1ccc([Si](C)(C)C)c(F)c1` (stereo not drawn) [Example 4, N-(3-fluoro-4-(trimethylsilyl)phenyl)-6-methoxy-2-((6-oxo-1,6-dihydropyridin-3-yl)carbonyl)-1,2,3,4-tetrahydroisoquinoline-1-carboxamide]: 101%, 81.9% and 99.7%.
As to `CCOc1ccc2c(c1)CCN(C(=O)Cc1cc(O)no1)[C@H]2C(=O)Nc1cc(F)c(C(C)(C)COC)c(F)c1` [Example 165, (1R)-N-(3,5-difluoro-4-(1-methoxy-2-methylpropan-2-yl)phenyl)-6-ethoxy-2-((3-hydroxy-1,2-oxazol-5-yl)acetyl)-1,2,3,4-tetrahydroisoquinoline-1-carboxamide], the inhibition at 1 µM at RORγt [1] stood at 101%; at RORγt [2] it was 96%. The inhibition at 3 µM at RORγt [3] (setting [4]) was determined as 101%.
